Literature values, collected in US20190021382A1, “LONG-LASTING SWEETENER FORMULATIONS” (WM. WRIGLEY JR. COMPANY, priority 2016, published 2019).

Conditions: relative to sugar

C=C1C[C@@]23CC[C@H]4[C@@](C)(CCC[C@@]4(C)C(=O)O[C@@H]4O[C@H](CO)[C@@H](O)[C@H](O)[C@H]4O)[C@@H]2CC[C@]1(O[C@@H]1O[C@H](CO)[C@@H](O)[C@H](O[C@@H]2O[C@H](CO)[C@@H](O)[C@H](O)[C@H]2O)[C@H]1O[C@@H]1O[C@H](CO)[C@@H](O)[C@H](O)[C@H]1O)C3 [Rebaudioside A, rebaudioside A]
times sweeter than sugar: 200 times
